From patent publication US6790957B2, “Triazole derivatives useful in therapy” (Pfizer, Inc., priority 1996, dated 2004) come the findings set out here.

Molecules are shown by their SMILES. Like-named read-outs stand apart in the source and are kept apart here.

This data set can be described thus: Aqueous solubility of phosphate prodrugs compared with parent compounds. It is filed as physicochemical. Conditions: compounds of Examples in the form of their disodium salts.
Setting [1] is: water (aqueous), read-out: Solubility.

Take `C[C@@H](c1ccc(-c2ccnn2C)cc1)[C@@](Cn1cncn1)(OP(=O)([O-])[O-])c1ccc(F)cc1F.[Na+].[Na+]` [Example 8, (2R,3S)-2-(2,4-Difluorophenyl)-3-[4-(1-methylpyrazol-5-yl)phenyl]-1-(1,2,4-triazol-1-yl)-2-butyl disodium phosphate]: the solubility (commonly the concentration that dissolves in the medium under given conditions) was >50 mg/mL.

Take `C[C@@H](c1ncncc1F)[C@@](Cn1cncn1)(OP(=O)(O)O)c1ccc(F)cc1F` [Example 3, (2R,3S)-2-(2,4-Difluorophenyl)-3-(5-fluoro-4-pyrimidinyl)-1-(1H-1,2,4-triazol-1-yl)-2-butyl dihydrogen phosphate]: under setting [1], the solubility is > 150 mg/mL.

For `O=P(O)(O)OC(Cn1cncn1)(Cn1cncn1)c1ccc(F)cc1F` [Example 1, 2-(2,4-Difluorophenyl)-1,3-bis(1H-1,2,4-triazol-1-yl)-2-propyl Dihydrogen Phosphate], under setting [1], the solubility is > 150 mg/mL.
